Experimental data from article doi:10.1101/2025.11.06.686927v1 (biorxiv, 2025).
pEC50, pIC50: −log10 of the molar value.

Experiments:
[1] = molecular target: T1, CDK8-cyclin C (HsCDK8/Cyclin C) (Homo sapiens, UniProt P49336); test: radiometric […]-ATP kinase assay, RBER-IRStide substrate; type: biochemical
DYRK1A (RnDYRK1A-kd) [2] = molecular target: T2, DYRK1A (RnDYRK1A-kd) (Rattus norvegicus, UniProt Q63470); test: biochemical; conditions: read-out: % of control remaining
CDK5/P25 = CDK5/P25 (Homo sapiens, UniProt Q00535); test: biochemical; conditions: read-out: % of control remaining
CDK5/P25, sequence (Q00535 whole entry): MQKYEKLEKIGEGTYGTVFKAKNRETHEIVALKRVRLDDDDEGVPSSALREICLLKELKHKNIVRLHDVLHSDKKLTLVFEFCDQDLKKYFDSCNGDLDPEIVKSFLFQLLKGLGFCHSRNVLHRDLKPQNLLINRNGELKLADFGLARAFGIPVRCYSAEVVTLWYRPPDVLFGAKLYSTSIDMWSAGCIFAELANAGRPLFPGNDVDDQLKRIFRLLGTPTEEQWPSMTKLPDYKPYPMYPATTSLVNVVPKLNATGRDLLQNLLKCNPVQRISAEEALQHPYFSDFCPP
CDK5/P25, sequence (Q15078 whole entry partner): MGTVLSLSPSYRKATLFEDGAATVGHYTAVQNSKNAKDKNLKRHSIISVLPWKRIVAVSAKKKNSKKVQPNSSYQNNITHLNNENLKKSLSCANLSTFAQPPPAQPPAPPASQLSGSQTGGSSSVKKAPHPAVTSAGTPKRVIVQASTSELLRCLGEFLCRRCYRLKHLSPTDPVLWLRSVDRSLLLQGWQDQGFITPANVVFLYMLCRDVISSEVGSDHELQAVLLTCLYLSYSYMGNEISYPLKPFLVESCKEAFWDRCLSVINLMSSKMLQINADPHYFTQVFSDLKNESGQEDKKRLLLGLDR

PIM1 = PIM1 (Homo sapiens, UniProt P11309); test: biochemical; conditions: read-out: % of control remaining
PIM1, sequence (P11309 whole entry): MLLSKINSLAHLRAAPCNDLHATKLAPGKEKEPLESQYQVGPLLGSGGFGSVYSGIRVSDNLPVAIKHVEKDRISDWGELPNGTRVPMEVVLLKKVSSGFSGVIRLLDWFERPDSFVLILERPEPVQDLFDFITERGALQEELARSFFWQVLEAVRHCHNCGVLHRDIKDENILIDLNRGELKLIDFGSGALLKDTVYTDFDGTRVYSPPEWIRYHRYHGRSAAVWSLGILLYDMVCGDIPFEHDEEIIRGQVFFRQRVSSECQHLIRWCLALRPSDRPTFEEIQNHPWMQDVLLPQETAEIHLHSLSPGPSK

in vitro = test: in vitro; set-up: species or system HCT116, SH-SY5Y, U2OS; conditions: human, rpe-1 cells
[3] = molecular target: T1, CDK8-cyclin C (HsCDK8/Cyclin C); test: biochemical; conditions: read-out: % of control remaining
HASPIN = molecular target: T3, HASPIN (Homo sapiens, UniProt Q8TF76); test: biochemical; conditions: read-out: % of control remaining
T3 sequence (Q8TF76 1-798): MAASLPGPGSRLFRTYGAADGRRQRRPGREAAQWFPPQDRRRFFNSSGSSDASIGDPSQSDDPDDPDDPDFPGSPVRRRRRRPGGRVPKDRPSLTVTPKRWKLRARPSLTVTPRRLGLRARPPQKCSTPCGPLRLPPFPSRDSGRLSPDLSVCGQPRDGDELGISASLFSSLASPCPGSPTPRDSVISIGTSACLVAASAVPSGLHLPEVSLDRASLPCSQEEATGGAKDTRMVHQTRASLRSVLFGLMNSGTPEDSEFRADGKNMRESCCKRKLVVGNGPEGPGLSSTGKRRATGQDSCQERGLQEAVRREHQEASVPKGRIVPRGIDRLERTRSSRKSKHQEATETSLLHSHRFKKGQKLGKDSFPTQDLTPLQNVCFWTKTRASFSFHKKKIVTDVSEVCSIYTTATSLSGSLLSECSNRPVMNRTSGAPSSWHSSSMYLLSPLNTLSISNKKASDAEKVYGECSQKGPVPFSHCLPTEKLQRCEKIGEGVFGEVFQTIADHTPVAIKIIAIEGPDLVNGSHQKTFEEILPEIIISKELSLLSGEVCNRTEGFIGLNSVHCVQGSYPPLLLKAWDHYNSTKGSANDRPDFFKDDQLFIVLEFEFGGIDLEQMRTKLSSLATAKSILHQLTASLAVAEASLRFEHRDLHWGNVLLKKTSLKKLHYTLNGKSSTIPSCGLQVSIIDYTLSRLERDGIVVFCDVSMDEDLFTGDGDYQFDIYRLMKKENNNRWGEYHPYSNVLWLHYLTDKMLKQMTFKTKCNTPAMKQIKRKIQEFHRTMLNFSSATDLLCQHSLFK

CLK1 (MmCLK1) [4] = molecular target: T4, CLK1 (MmCLK1) (Mus musculus, UniProt P22518); test: biochemical; conditions: read-out: % of control remaining
T4 sequence (P22518 whole entry): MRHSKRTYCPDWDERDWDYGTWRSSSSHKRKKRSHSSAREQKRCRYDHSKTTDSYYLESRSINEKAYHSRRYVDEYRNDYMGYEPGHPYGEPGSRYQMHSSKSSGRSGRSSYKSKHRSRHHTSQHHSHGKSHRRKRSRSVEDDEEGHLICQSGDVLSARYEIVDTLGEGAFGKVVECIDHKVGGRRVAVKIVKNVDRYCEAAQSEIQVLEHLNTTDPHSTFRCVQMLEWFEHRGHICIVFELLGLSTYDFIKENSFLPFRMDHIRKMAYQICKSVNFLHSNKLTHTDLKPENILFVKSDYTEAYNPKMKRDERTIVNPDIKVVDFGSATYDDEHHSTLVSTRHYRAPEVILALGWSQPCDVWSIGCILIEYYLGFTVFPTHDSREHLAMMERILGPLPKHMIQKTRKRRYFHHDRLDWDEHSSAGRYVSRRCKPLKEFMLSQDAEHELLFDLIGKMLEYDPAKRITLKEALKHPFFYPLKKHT

CDK2/cyclin A = CDK2/cyclin A (Homo sapiens, UniProt P24941); test: biochemical; conditions: read-out: % of control remaining
SH-SY5Y = test: cells; set-up: species or system RPE-1, HCT116, U2OS; conditions: Homo sapiens, 48 h, read-out: SHSY-5Y EC50
U2OS = test: cells; set-up: species or system RPE-1, HCT116, SH-SY5Y; conditions: Homo sapiens, 48 h, read-out: U2OS EC50
HCT116 = test: cells; set-up: species or system RPE-1, SH-SY5Y, U2OS; conditions: Homo sapiens, HCT-116, 48 h, read-out: HCT116 EC50
DYRK1A (RnDYRK1A-kd) [5] = molecular target: T2, DYRK1A (RnDYRK1A-kd); test: radiometric […]-ATP kinase assay, peptide KKISGRLSPIMTEQ; type: biochemical; conditions: read-out: % residual activity at 10 μM
CLK1 (MmCLK1) [6] = molecular target: T4, CLK1 (MmCLK1); test: radiometric […]-ATP kinase assay, peptide GRSRSRSRSRSR; type: biochemical; conditions: read-out: % residual activity at 10 μM

T1 sequence (P49336 whole entry): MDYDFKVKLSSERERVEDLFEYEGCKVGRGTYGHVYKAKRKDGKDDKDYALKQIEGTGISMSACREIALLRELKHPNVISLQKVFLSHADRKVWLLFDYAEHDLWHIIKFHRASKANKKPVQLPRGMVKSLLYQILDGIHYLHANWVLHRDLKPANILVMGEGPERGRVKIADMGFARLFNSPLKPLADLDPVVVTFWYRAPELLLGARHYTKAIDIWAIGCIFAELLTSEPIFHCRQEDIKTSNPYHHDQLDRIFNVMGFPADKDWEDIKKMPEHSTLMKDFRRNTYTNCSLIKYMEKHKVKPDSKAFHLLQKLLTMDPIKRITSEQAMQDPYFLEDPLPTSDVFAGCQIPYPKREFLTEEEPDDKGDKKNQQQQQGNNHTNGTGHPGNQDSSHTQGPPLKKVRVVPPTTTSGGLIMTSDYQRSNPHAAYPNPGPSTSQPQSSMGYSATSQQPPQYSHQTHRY
T1 sequence (P24863 whole entry partner): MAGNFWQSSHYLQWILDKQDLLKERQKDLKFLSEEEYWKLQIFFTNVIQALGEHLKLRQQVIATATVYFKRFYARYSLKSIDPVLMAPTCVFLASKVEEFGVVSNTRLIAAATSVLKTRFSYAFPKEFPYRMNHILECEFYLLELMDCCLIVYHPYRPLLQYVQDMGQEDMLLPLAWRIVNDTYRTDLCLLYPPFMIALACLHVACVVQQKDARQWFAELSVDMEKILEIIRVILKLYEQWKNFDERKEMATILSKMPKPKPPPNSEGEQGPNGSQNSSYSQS

| pIC50 [1] | remaining activity at 10 µM (DYRK1A (RnDYRK1A-kd) [2]) [%] | remaining activity at 10 µM (CDK5/P25) [%] | remaining activity at 10 µM (PIM1) [%] | remaining activity at 10 µM [3] [%] | remaining activity at 10 µM (HASPIN) [%] | remaining activity at 10 µM (CLK1 (MmCLK1) [4]) [%] | remaining activity at 10 µM (CDK2/cyclin A) [%] | pEC50 (SH-SY5Y) | pEC50 (U2OS) | pEC50 (HCT116) | remaining activity at 10 µM (DYRK1A (RnDYRK1A-kd) [5]) [%] | remaining activity at 10 µM (CLK1 (MmCLK1) [6]) [%] | SMILES | CC50 at 48 h (in vitro) [µM] |
| --- | --- | --- | --- | --- | --- | --- | --- | --- | --- | --- | --- | --- | --- | --- |
| 7.40 | 80 | 107 | 71 | 10 | 94 | 111 | 78 | < 4.30 | < 4.30 | < 4.30 |  |  | O=C(CSc1ccc(-c2cccnc2)nn1)Nc1cccc(C(F)(F)F)c1 [compound 9, #9] | > 50 |
| 6.70 | 75 | 107 | 89 | 5 | 118 | 109 | 81 | < 4.30 | < 4.30 | < 4.30 |  |  | O=C(NC[C@@H]1Cc2cc(-c3cncnc3)ccc2O1)c1scc2c1CCCC2 [compound 47, #47] | > 50 |
| 7.52 |  | 57 | 78 | 15 |  |  | 62 | < 4.30 | 4.32 | < 4.30 | -7 | 34 | N#Cc1ccc2ncnc(NCCc3ccccc3)c2c1 [Senexin A] | 41 |
| 7.52 | 73 | 115 | 127 | 6 | 144 | 143 | 82 | 5.10 | 5.05 | 4.72 |  |  | Cc1cccc(OCC(=O)Nc2ccc3oc(-c4cccnc4)nc3c2)c1C [compound 45, #45] | 43 |
| 8.30 | 134 | 109 | 89 | 19 | 111 | 81 | 120 | 4.62 | 5.00 | 4.51 |  |  | Cc1ccc(NC(=O)Nc2ccc(Cc3ccncc3)cc2)cc1C [compound 82, #82] | > 50 |
| 6.80 | 83 | 115 | 85 | 10 | 96 | 151 | 76 | 4.39 | 4.85 | 4.54 |  |  | O=C(Nc1ccc(Cc2ccncc2)cc1)Nc1cccc2ccccc12 [compound 22, #22] | 10 |
| 7.00 | 80 | 89 | 109 | 11 | 116 |  | 73 | < 4.30 | < 4.30 | < 4.30 |  | 37 | O=C(Nc1ccc2oc(-c3cccnc3)nc2c1)c1ncoc1-c1ccccc1Cl [compound 76, #76] | > 50 |
| 7.30 | 89 | 101 | 95 | 8 | 123 | 99 | 106 | < 4.30 | < 4.30 | < 4.30 |  |  | O=C(NC[C@H]1CC(=O)N(c2ccc3c(c2)OCO3)C1)Nc1cccc(C(F)(F)F)c1 [compound 75, #75] | > 50 |
